Reference: patent publication US12459951B2, “Compounds that interact with RAS superfamily proteins for treatment of cancers, inflammatory diseases, rasopathies, and fibrotic disease” (SHY Therapeutics, LLC, priority 2022, dated 2025)

Experiments:
[1] = test system: Akt phosphorylation; assay: Akt Phosphorylation Assay (western blot), Panc-1; format: cell-based, human; conditions: at 10 μM, * = activation
Summary of the method: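 Phospho-Akt (Ser473) was measured by western blot in lysates of KRas G12D Panc-1 cells exposed to test compound for 6 h at 37 °C, either at 10 μM final with 0.3% DMSO or as serial dilutions for IC50. One format used overnight 0.5% FBS starvation followed by a 15 min pulse of 1.5 ng/ml EGF. The other used cells in 10% FBS with no stimulation.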

[2] = test system: KRas G12D mutant; assay: Ras GTP Binding Domain Inhibition Assay (Ras Superfamily Assay); conditions: at 20 μM; for KRas G12D mutant + SOS: % inh.: with SOS; for KRas G12D mutant: % inh.: without SOS
Summary of the method: (§1)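 Binding of 100 nM fluorescent GTP (Cy3 or Cy5, 45 min, room temperature) was read after washes from plate-captured His-tagged protein. Beforehand, compounds at 20 μM or in dilution series for IC50 sat 3 h on the protein in Tris buffer pH 7.4 or 7.0 with 1% DMSO, Sos GEF optionally added for the last hour.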

[3] = test system: KRas wild type; assay: as above; conditions: at 20 μM; for KRas wild type + SOS: % inh.: with SOS; for KRas wild type: % inh.: without SOS
Summary of the method: as §1

[4] = biological target: T1, Rac-1 (Homo sapiens, UniProt P63000); assay: as above; conditions: read-out: Rac-1: % inh.
T1 construct: made in house
Summary of the method: as §1

CO[C@H]1C[C@H](Nc2nc(-c3nccn3C)nn3cc(-c4ccn(C)n4)c(C4CC4)c23)C1 [Compound 275, 5-Cyclopropyl-N-((1r,3r)-3-methoxycyclobutyl)-2-(1-methyl-1H-imidazol-2-yl)-6-(1-methyl-1H-pyrazol-3-yl)pyrrolo[2,1-f][1,2,4]triazin-4-amine]
% inh of Akt phosphorylation in Panc-1 [1]: D* (85-100% activation) | KRas G12D mutant + SOS: % inh. [2]: A (A = 1-25% inhibition) | KRas G12D mutant: % inh. [2]: A (A = 1-25% inhibition) | KRas wild type + SOS: % inh. [3]: 0 (0 = 0% inhibition) | KRas wild type: % inh. [3]: A (A = 1-25% inhibition) | inhibition at 20 µM [4]: 1 to 25%

Cc1c(-c2ccn(C)n2)cn2nc(-c3nccn3C)nc(Nc3cc(C4CCC4)[nH]n3)c12 [Compound 257, N-(5-Cyclobutyl-1H-pyrazol-3-yl)-5-methyl-2-(1-methyl-1H-imidazol-2-yl)-6-(1-methyl-1H-pyrazol-3-yl)pyrrolo[2,1-f][1,2,4]triazin-4-amine]
% inh of Akt phosphorylation in Panc-1 [1]: D* (85-100% activation) | KRas G12D mutant + SOS: % inh. [2]: D (D = 76-100% inhibition) | KRas G12D mutant: % inh. [2]: D (D = 76-100% inhibition) | KRas wild type + SOS: % inh. [3]: D (D = 76-100% inhibition) | KRas wild type: % inh. [3]: C (C = 50-75% inhibition) | inhibition at 20 µM [4]: 50 to 75%

Cc1cc(Nc2nc(-c3nccn3C)nn3cc(-c4ccn(C)n4)c(C)c23)n[nH]1 [Compound 255, 5-Methyl-2-(1-methyl-1H-imidazol-2-yl)-6-(1-methyl-1H-pyrazol-3-yl)-N-(5-methyl-1H-pyrazol-3-yl)pyrrolo[2,1-f][1,2,4]triazin-4-amine]
% inh of Akt phosphorylation in Panc-1 [1]: D* (85-100% activation) | KRas G12D mutant + SOS: % inh. [2]: D (D = 76-100% inhibition) | KRas G12D mutant: % inh. [2]: D (D = 76-100% inhibition) | KRas wild type + SOS: % inh. [3]: D (D = 76-100% inhibition) | inhibition at 20 µM [4]: 76 to 100%

COc1cccc(-c2cn3nc(-c4nccn4C)nc(N[C@H]4C[C@@H](OC)C4)c3c2-c2ccccc2)c1C [Compound 269, 6-(3-Methoxy-2-methylphenyl)-N-((1s,3s)-3-methoxycyclobutyl)-2-(1-methyl-1H-imidazol-2-yl)-5-phenylpyrrolo[2,1-f][1,2,4]triazin-4-amine]
% inh of Akt phosphorylation in Panc-1 [1]: C (50-84% inhibition) | KRas G12D mutant + SOS: % inh. [2]: B (B = 26-49% inhibition) | KRas G12D mutant: % inh. [2]: B (B = 26-49% inhibition) | KRas wild type + SOS: % inh. [3]: A (A = 1-25% inhibition) | KRas wild type: % inh. [3]: C (C = 50-75% inhibition) | inhibition at 20 µM [4]: 26 to 49%

CCOc1cc(Nc2nc(-c3nccn3C)nn3cc(-c4ccn(C)n4)c(C)c23)n[nH]1 [Compound 260, N-(5-Ethoxy-1H-pyrazol-3-yl)-5-methyl-2-(1-methyl-1H-imidazol-2-yl)-6-(1-methyl-1H-pyrazol-3-yl)pyrrolo[2,1-f][1,2,4]triazin-4-amine]
% inh of Akt phosphorylation in Panc-1 [1]: C* (46-84% activation) | KRas G12D mutant + SOS: % inh. [2]: C (C = 50-75% inhibition) | KRas G12D mutant: % inh. [2]: C (C = 50-75% inhibition) | KRas wild type + SOS: % inh. [3]: D (D = 76-100% inhibition) | KRas wild type: % inh. [3]: D (D = 76-100% inhibition) | inhibition at 20 µM [4]: 50 to 75%
